In patent publication US8748428B2, “Use of a PKC inhibitor” (Novartis AG, priority 2010, dated 2014):

Experiments:
[1] = tested on: IL-6 mRNA in OCI-Ly10 cells; assay: IL-6 mRNA expression (Taqman); assay type: cell-based; conditions: OCI-Ly10, 24 hours, 10 nM to 10 uM
Text: (§1) Constitutive activation of the NFkB pathway is a molecular hallmark of ABC DLBCL cells and is required for their proliferation and survival. See Davis, R. E., et al., J Exp Med, 194(12), 1861-1874 (2001). To confirm that the growth inhibitory effect in response to PKC inhibition is mediated through modulation of NFkB pathway signaling, the expression of NFkB pathway genes were monitored in response to AEB071 treatment. The NFkB-pathway-induced cytokine IL-6 was used as a marker to study NFkB pathway modulation by PKC inhibitors. See Lam, L. T., et al., Blood 111(7):3701-13 (2008). To measure IL-6 mRNA levels, cells were plated in […] plates in 2 ml media at 2M/ml, then treated with DMSO or inhibitors from 10 nM to 10 uM (4-fold dilutions) for 24 hours. Total RNA was harvested using the RNeasy kit (Qiagen, #74104) and cDNA was made from 1 μg total RNA using the High Capacity cDNA kit (ABI, #4368814), according to manufacturer's protocols. Taqman probes (ABI: IL-6, Hs00174131_m1) were used with Gene Expression Master Mix (ABI, 4369510) to determine the amount of mRNA expression for IL-6 relative to an endogenous control gene (ABI: TBP, 4326322E) and the DMSO control using the delta-delta Ct method.

[2] = tested on: IL-6 mRNA in OCI-Ly3 cells; assay: IL-6 mRNA expression (Taqman); assay type: cell-based; conditions: OCI-Ly3 (mutant CARD11), 24 hours, 10 nM to 10 uM
Text: as §1

[3] = tested on: IL-6 mRNA in TMD8 cells; assay: IL-6 mRNA expression (Taqman); assay type: cell-based; conditions: TMD8, 24 hours, 10 nM to 10 uM
Text: as §1

[4] = tested on: IL-6 mRNA in HBL1 cells; assay: IL-6 mRNA expression (Taqman); assay type: cell-based; conditions: HBL1, 24 hours, 10 nM to 10 uM
Text: as §1

[5] = tested on: IL-10 mRNA in TMD8 xenograft tumor; assay: IL-10 mRNA expression in TMD8 xenograft tumor tissue (PD arm); assay type: in vivo, SCID-beige mice
Experimental: To confirm that the growth inhibitory effect in response to PKC inhibition is mediated through modulation of NFkB pathway signaling, the mRNA expression of IL-10 was monitored in response to AEB071 treatment in a PD arm of the in vivo study. Mice were implanted with TMD8 cells as described above, and when the tumor volume reached ˜160 mm^3, a single dose of 80 mg/kg AEB071 was administered. Tumor samples were harvested and snap frozen in liquid nitrogen, at 1 hour or 8 hours following the single does of AEB071. Tissue samples were homogenized and lysed in RLT buffer (Qiagen, #74104) with Reagent DX (Qiagen, 19088) using the TissueLyser II (Qiagen, 85300). Total RNA was harvested using the RNeasy kit (Qiagen, #74104) and cDNA was made from 1 μg total RNA using the High Capacity cDNA kit (ABI, #4368814), according to manufacturer's protocols. The IL-10 Taqman probe (ABI, Hs00174086_m1) was used with Gene Expression Master Mix (ABI, 4369510) to determine the amount of mRNA expression for IL-10 relative to an endogenous control gene (ABI: TBP, 4326322E) and the DMSO control using the delta-delta Ct method. […] Consistent with the in vitro kinetics of NFkB target gene downregulation by AEB071, IL-10 mRNA expression was unaffected after just 1 hour of treatment (see, FIG. 3A).

[6] = tested on: TMD8 xenograft; assay: Subcutaneous TMD8 xenograft model, tumor growth; assay type: in vivo, SCID-beige mice; conditions: 80 mg/kg, tid, daily oral dosing; p<0.05 vs vehicle
Experimental: CD79 mutant ABC DLBCL were also shown to be sensitive to PKC inhibition in an in vivo setting by using a subcutaneous TMD8 xenograft model. Female SCID-beige mice were purchased from Charles River Labs (Wilmington Mass.) and housed in temperature and a humidity-controlled vivarium with a 12 hours light cycle and provided food and water ad libitum. Mice were implanted subcutaneously with 10×10^6 TMD8 cells in 50% matrigel (BD Biosciences, #354234) in the right dorsal axillary region, and animals were randomized into treatment groups when tumor sizes average ˜160 mm^3 (21 days post-implantation). AEB071 was formulated in 20% PEG400 and 4.5% 0.1 M HCl in D5W. Tumor volume was measured by callipering in 2 dimensions and calculated as (Length×Width^2)/2. Animals were callipered twice weekly during treatment to monitor effects on tumor growth. […] T/C percentage was calculated as the mean change in tumor volumes of treated animals divided by the mean change in tumor volumes of vehicle animals and multiplied by 100. Data are expressed as mean±SEM, and differences are considered statistically significant at p<0.05 by Student t-test.

CN1CCN(c2nc(C3=C(c4c[nH]c5ccccc45)C(=O)NC3=O)c3ccccc3n2)CC1 [AEB071, 3-(1H-Indol-3-yl)-4-[2-(4-methylpiperazin-1-yl)quinazolin-4-yl]-1H-pyrrole-2,5-dione]
IL-6 mRNA expression [1]: dose-dependent decrease
IL-6 mRNA expression [2]: unaffected
IL-6 mRNA expression [3]: dose-dependent decrease
IL-6 mRNA expression [4]: dose-dependent decrease
IL-10 mRNA expression in xenograft tumor tissue ([5]; 1 hour after single dose of 80 mg/kg): unaffected
IL-10 mRNA expression in xenograft tumor tissue ([5]; 8 hours after single dose of 80 mg/kg): decrease
T/C (tumor growth) [6]: 17%
